Test results reported in patent US20200338064A1, “HIGH CONCENTRATION LOCAL ANESTHETIC FORMULATIONS” (priority 2007, published 2020).

Assay: Solubility and compatibility of lidocaine and lidocaine HCl at 40% w/w in solvent blends
Format: physicochemical
Conditions: two weeks at accelerated conditions versus initial
Description: The solubility and compatibility of lidocaine and lidocaine HCl in solvents typically used in topical pharmaceutical products was assessed in order to direct the formulation development efforts.
Initially, the solubility of lidocaine and lidocaine hydrochloride was evaluated in single solvents with varying lipophilicity. […] Based on the single solvent data, a compatibility study was initiated to evaluate the chemical stability of the drug at a concentration of 40% w/w in a variety of solvent blends that would form the base of potential prototype gel or cream formulations.

## CCN(CC)CC(=O)Nc1c(C)cccc1C [lidocaine]
  Physical appearance and chemical compatibility in solvent blends: retained their physical appearance
